Earlier results, collected in the Kinase Knowledgebase extract (Sharma et al. 2016).

Target: EGFR (UniProt P00533)
Sequence (P00533 whole entry, looked up): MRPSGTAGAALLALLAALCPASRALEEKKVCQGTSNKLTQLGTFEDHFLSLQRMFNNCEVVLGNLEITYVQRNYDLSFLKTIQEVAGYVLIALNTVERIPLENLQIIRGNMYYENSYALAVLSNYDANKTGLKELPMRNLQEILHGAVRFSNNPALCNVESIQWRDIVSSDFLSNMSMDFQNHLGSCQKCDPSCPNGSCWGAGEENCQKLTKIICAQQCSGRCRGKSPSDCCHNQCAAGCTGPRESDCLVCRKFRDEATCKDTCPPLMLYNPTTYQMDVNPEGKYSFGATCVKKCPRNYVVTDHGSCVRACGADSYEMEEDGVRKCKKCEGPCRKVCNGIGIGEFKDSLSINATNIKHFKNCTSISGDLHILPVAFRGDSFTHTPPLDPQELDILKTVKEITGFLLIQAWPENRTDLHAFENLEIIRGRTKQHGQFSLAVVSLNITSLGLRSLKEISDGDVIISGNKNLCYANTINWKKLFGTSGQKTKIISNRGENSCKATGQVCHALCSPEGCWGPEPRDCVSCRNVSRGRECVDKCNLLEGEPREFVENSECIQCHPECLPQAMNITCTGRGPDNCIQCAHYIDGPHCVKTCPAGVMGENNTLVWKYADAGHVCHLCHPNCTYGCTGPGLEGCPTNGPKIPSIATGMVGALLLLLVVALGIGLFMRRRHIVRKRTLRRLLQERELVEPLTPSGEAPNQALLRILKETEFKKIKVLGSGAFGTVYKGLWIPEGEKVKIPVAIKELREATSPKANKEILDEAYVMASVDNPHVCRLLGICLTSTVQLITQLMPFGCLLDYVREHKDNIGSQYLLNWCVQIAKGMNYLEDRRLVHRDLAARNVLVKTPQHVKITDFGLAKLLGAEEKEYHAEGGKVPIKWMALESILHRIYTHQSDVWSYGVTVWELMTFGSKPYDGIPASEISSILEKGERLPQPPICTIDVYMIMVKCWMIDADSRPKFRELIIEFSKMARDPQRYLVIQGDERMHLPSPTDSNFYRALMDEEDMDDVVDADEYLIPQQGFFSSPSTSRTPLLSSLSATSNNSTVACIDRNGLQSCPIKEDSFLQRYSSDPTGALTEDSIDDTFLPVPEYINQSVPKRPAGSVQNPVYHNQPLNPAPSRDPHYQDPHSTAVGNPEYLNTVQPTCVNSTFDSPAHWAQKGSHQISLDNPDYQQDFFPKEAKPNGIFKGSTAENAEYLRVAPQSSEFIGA
For CN(CC(O)C(O)C(O)C(O)CO)c1cc2ncnc(Nc3cccc(Br)c3)c2cn1 (stereo unspecified), the IC50 is listed as 3 nM.
In the case of c1ccc(Nc2ncnc3[nH]c4ccccc4c23)cc1, the IC50 is listed as 6920 nM.
For Oc1ccc(-c2cc3c(Nc4cccc(Cl)c4)ncnc3[nH]2)cc1, the IC50 is listed as 3 nM.
For COc1cc2c(Nc3cccc(Cl)c3F)ncnc2cc1OCCN1CCN(C)CC1, the IC50 is listed as 200 nM.
For OCCN(CCO)CCNc1cc2ncnc(Nc3cccc(Br)c3)c2cn1, the IC50 is listed as 9 nM.
For COc1cc2c(Nc3cccc(C#N)c3F)ncnc2cc1OC/C=C/CN1CCCC1, the IC50 is given as 794 nM.
For COc1cc2c(Nc3cccc(Cl)c3F)ncnc2cc1OCC1CCNCC1, the IC50 is given as 300 nM.
For COc1cc2c(Nc3ccc(O)c(C)c3F)ncnc2cc1OCC1CCN(C)CC1, the IC50 is given as 300 nM.
For OCCNc1cc2ncnc(Nc3cccc(Br)c3)c2cn1, the IC50 is listed as 0.2 nM.
For COc1cc2c(Nc3cccc(Br)c3F)ncnc2cc1OCCC1CCNCC1, the IC50 is listed as 200 nM.
For COc1cc2c(Nc3cccc(Br)c3F)ncnc2cc1OCC1CCNCC1, the IC50 is given as 200 nM.
In the case of CNc1ncc2ncnc(Nc3cccc(Br)c3)c2n1, the IC50 is listed as 0.75 nM.
For O=S(=O)(O)CCNc1cc2ncnc(Nc3cccc(Br)c3)c2cn1, the IC50 is given as 1 nM.
In the case of [O-][N+]1(CCCNc2cc3ncnc(Nc4cccc(Br)c4)c3cn2)CCOCC1, the IC50 is given as 0.7 nM.
For CN(CC(O)CO)c1cc2ncnc(Nc3cccc(Br)c3)c2cn1 (stereo unspecified), the IC50 is given as 3 nM.
For COc1cc2c(Nc3cccc(Br)c3F)ncnc2cc1OC[C@@H]1CCCN(C)C1, the IC50 is given as 200 nM.
For COc1cc2c(Nc3cccc(Cl)c3F)ncnc2cc1OCCCN1CCOCC1, the IC50 is given as 100 nM.
In the case of COc1cc2c(Nc3ccc(O)c(Cl)c3F)ncnc2cc1OCC1CCN(C)CC1, the IC50 is given as 100 nM.
For CN(CC(=O)O)c1cc2ncnc(Nc3cccc(Br)c3)c2cn1, the IC50 is listed as 15 nM.
For COc1cc2c(Nc3cc(F)cc(Cl)c3F)ncnc2cc1OCC1CCN(C)CC1, the IC50 is listed as 450 nM.
In the case of Cc1[nH]c2ncnc(NCc3cccc(Cl)c3)c2c1C, the IC50 is given as 1070 nM.
For COc1cc2c(Nc3cccc(Cl)c3F)ncnc2cc1OCCCN1CCCC1, the IC50 is listed as 100 nM.
For COc1cc2c(Nc3cccc(C)c3F)ncnc2cc1OCC1CCN(C)CC1, the IC50 is listed as 1000 nM.
In the case of COc1cc2c(Nc3cc(F)cc(Cl)c3F)ncnc2cc1OCC1CCNCC1, the IC50 is listed as 500 nM.
In the case of COc1cc2c(Nc3cccc(Cl)c3F)ncnc2cc1OC[C@@H]1CCCN(C)C1, the IC50 is listed as 100 nM.
In the case of O=C(O)CCCNc1cc2ncnc(Nc3cccc(Br)c3)c2cn1, the IC50 is listed as 0.2 nM.
In the case of COc1cc2c(Nc3cccc(Cl)c3F)ncnc2cc1OCCCN1CCN(C)CC1, the IC50 is listed as 76 nM.
For COc1ccc(-c2cc3c(Nc4cccc(Cl)c4)ncnc3[nH]2)cc1, the IC50 is listed as 15.1 nM.
In the case of COc1cc2c(Nc3cccc(Br)c3F)ncnc2cc1OCCC1CCN(C)CC1, the IC50 is given as 200 nM.
For NNc1cc2ncnc(Nc3cccc(Br)c3)c2cn1, the IC50 is given as 7 nM.
For Clc1cccc(Nc2ncnc3[nH]c(-c4ccccn4)cc23)c1, the IC50 is listed as 7 nM.
For COc1cc2c(Nc3cccc(Br)c3F)ncnc2cc1OC[C@H]1CCCN(C)C1, the IC50 is listed as 100 nM.
For COc1cc2c(Nc3cccc(Cl)c3F)ncnc2cc1OCCC1CCN(C)CC1, the IC50 is given as 300 nM.
In the case of CN(C)CCCNc1cc2ncnc(Nc3cccc(Br)c3)c2cn1, the IC50 is listed as 8 nM.
In the case of COc1cc2c(Nc3cccc(Cl)c3F)ncnc2cc1OCCN1CCOCC1, the IC50 is listed as 398 nM.
For Cc1cccc(Nc2ncnc3cc(NCCCn4ccnc4)ncc23)c1, the IC50 is listed as 3.4 nM.
For COc1cc2c(Nc3cccc(Br)c3F)ncnc2cc1OCCCN1CCN(C)CC1, the IC50 is listed as 100 nM.
In the case of COc1cc2c(Nc3cccc(Br)c3F)ncnc2cc1OC/C=C/CN1CCCC1, the IC50 is listed as 100 nM.
For CN(CCO)c1cc2ncnc(Nc3cccc(Br)c3)c2cn1, the IC50 is given as 2 nM.
In the case of O=C(O)c1ccc(-c2cc3c(Nc4cccc(Cl)c4)ncnc3[nH]2)cc1, the IC50 is listed as 1 nM.
In the case of Nc1ccc(-c2cc3c(Nc4cccc(Cl)c4)ncnc3[nH]2)cc1, the IC50 is listed as 3 nM.
For Clc1ncc2ncnc(Nc3cccc(Br)c3)c2n1, the IC50 is listed as 81 nM.
In the case of OCC(O)C(O)C(O)C(O)CNc1cc2ncnc(Nc3cccc(Br)c3)c2cn1 (stereo unspecified), the IC50 is given as 4 nM.
In the case of Nc1cccc(-c2cc3c(Nc4cccc(Cl)c4)ncnc3[nH]2)c1, the IC50 is given as 3.9 nM.
For COc1cc2c(Nc3cccc(Cl)c3F)ncnc2cc1OC/C=C/CN1CCCC1, the IC50 is given as 89 nM.
For COc1cc2c(Nc3cccc(Cl)c3F)ncnc2cc1OCCN(C)c1ccncc1, the IC50 is given as 300 nM.
In the case of CN(C)c1cc2ncnc(Nc3cccc(Br)c3)c2cn1, the IC50 is given as 0.089 nM.
In the case of CN(C)CCCCCNc1cc2ncnc(Nc3cccc(Br)c3)c2cn1, the IC50 is given as 8.3 nM.
For COc1cc2c(Nc3cc(F)cc(Br)c3F)ncnc2cc1OCC1CCNCC1, the IC50 is given as 450 nM.
In the case of CNC(=O)c1cc2c(Nc3cccc(Cl)c3)ncnc2[nH]1, the IC50 is listed as 3 nM.
For CNc1cc2ncnc(Nc3cccc(Br)c3)c2cn1, the IC50 is given as 0.1 nM.
In the case of COCCOc1cc2ncnc(Nc3cccc(Cl)c3F)c2cc1OC, the IC50 is listed as 100 nM.
For COc1cc2c(Nc3cccc(C)c3F)ncnc2cc1OCC1CCNCC1, the IC50 is given as 500 nM.
For Brc1cccc(Nc2ncnc3cc(NCCN4CCOCC4)ncc23)c1, the IC50 is given as 3 nM.
In the case of COc1cc2c(Nc3cc(F)cc(Br)c3F)ncnc2cc1OCC1CCN(C)CC1, the IC50 is given as 300 nM.
In the case of CNc1cc2ncnc(Nc3cccc(C)c3)c2cn1, the IC50 is given as 1 nM.
